Results reported in publication PMC3348135, “Identification of New Agonists and Antagonists of the Insect Odorant Receptor Co-Receptor Subunit” (PLoS ONE, 2012).
Where two headings read alike, the source gives them in different places.

Legend:
Dmel\Orco + Dmel\Or35a [1] = biological target: T1, Dmel\Orco + Dmel\Or35a (Drosophila melanogaster, UniProt Q9VNB5); experiment: Agonist activation of Dmel\Orco + Dmel\Or35a in Xenopus oocytes, two-electrode voltage clamp; type: cell-based; conditions: read-out: Response amplitude as percentage of response to 100 µM OLC3, Dmel\Orco + Dmel\Or35a
T1 construct: expressed in transfected cells; host or cells: Xenopus laevis oocytes (cRNA injection, pGEMHE)
T1 sequence (Q9VNB5 1-486): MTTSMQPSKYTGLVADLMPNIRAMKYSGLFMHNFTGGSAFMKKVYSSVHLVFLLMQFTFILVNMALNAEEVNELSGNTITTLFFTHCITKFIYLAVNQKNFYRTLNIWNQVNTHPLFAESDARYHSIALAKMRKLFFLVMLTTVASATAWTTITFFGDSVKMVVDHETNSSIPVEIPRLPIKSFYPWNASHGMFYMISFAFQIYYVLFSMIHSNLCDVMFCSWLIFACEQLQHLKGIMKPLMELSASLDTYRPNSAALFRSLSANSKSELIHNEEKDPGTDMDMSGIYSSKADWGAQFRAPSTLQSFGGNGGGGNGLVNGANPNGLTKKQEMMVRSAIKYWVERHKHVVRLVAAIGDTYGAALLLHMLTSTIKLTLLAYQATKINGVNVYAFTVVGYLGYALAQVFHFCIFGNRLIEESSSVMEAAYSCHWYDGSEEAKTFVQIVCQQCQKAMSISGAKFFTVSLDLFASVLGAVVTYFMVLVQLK
T1 sequence (Q9V3Q2 1-409 partner): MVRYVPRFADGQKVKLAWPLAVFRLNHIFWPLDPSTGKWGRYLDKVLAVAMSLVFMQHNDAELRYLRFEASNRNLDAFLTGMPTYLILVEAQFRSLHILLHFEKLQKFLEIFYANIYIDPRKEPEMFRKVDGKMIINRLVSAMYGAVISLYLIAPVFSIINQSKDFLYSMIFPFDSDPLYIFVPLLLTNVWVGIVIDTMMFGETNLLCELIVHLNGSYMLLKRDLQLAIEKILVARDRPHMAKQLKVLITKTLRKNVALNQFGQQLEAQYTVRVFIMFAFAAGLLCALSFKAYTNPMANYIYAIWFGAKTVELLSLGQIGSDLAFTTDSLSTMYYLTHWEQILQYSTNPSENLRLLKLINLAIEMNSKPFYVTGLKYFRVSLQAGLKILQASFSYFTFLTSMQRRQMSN
Protocol: (§1) Oocytes were surgically removed from mature Xenopus laevis frogs. Follicle cells were removed by treatment with Collagenase B (Boehringer Mannhem) for 2 hours at room temperature. Capped cRNA encoding each DmOR subunit was generated using mMessage mMachine kits (Ambion). For heteromeric ORs, 25 ng of cRNA encoding each OR subunit was injected into Stage V-VI Xenopus oocytes. For expression of Orco alone, 50 ng of cRNA was injected. Oocytes were incubated at 18°C in Barth’s saline (in mM: 88 NaCl, 1 KCl, 2.4 NaHCO3, 0.3 CaNO3, 0.41 CaCl2, 0.82 MgSO4, 15 HEPES, pH 7.6, and 150 µg/ml ceftazidime) for 2–5 days prior to electrophysiological recording.
(§2) Odorant and Orco ligand induced currents were recorded under two-electrode voltage clamp in Xenopus laevis oocytes expressing ORs, using an automated parallel electrophysiology system (OpusExpress 6000A; Molecular Devices). Oocytes were perfused with ND96 (in mM: 96 NaCl, 2 KCl, 1 CaCl2, 1 MgCl2, 5 HEPES, pH 7.5). Odorant stock solutions (0.5 or 1 M) and Orco ligand stock solutions (100 mM) were prepared in DMSO and diluted in ND96. Unless otherwise noted, applications were for 60 sec at a flow rate of 1.0 ml/min, with extensive washing in ND96 (9 or 20 min at 4.6 ml/min) between applications. Micropipettes were filled with 3 M KCl and had resistances of 0.2−2.0 MΩ. The holding potential was −70 mV. Current responses, filtered (4-pole, Bessel, low pass) at 20 Hz (−3 db) and sampled at 100 Hz, were captured and stored using OpusXpress 1.1 software (Molecular Devices).
(§3) Initial analysis of electrophysiological data was done using Clampfit 9.1 software (Molecular Devices). Curve fitting and statistical analyses were done using Prism 5 (Graphpad). Concentration-response data were fit to the equation: I = Imax/(1+(EC50/X)^n) where I represents the current response at a given concentration of odorant, X; Imax is the maximal response; EC50 is the concentration of agonist yielding a half maximal response; n is the apparent Hill coefficient. Concentration-inhibition data were fit to the equation: I = Imax/(1+(X/IC50)^n) where I represents the current response at a given concentration of inhibitor, X; Imax is the maximal response in the absence of inhibitor; IC50 is the concentration of inhibitor present that still allows a half maximal response from odorant; n is the apparent Hill coefficient. Statistical significance was assessed using a two-tailed unpaired t test, an F test, or a one-way analysis of variance followed by the Bonferroni’s post-test, as appropriate.

Dmel\Orco = biological target: T2, Dmel\Orco (Drosophila melanogaster, UniProt Q9VNB5); experiment: Agonist activation of homomeric Dmel\Orco in Xenopus oocytes, two-electrode voltage clamp; type: cell-based; conditions: read-out: Response amplitude as percentage of response to 100 µM OLC3, Dmel\Orco
T2 construct: expressed in transfected cells; host or cells: Xenopus laevis oocytes (cRNA injection, pGEMHE)
T2 sequence (Q9VNB5 1-486): T1 sequence (Q9VNB5 1-486)
Protocol: as §1, §2, §3

Cqui\Orco + Cqui\Or10 [2] = biological target: T3, Cqui\Orco + Cqui\Or10 (Culex quinquefasciatus, UniProt D5LMR7+Q309I4); experiment: Activation of Cqui\Orco + Cqui\Or10 in Xenopus oocytes, two-electrode voltage clamp; type: cell-based; conditions: 100 µM compound; mean ± SEM, n=3-8; read-out: Response amplitude as percentage of response to 100 µM OLC3, Cqui\Orco + Cqui\Or10
T3 sequence (D5LMR7 entry or part of it): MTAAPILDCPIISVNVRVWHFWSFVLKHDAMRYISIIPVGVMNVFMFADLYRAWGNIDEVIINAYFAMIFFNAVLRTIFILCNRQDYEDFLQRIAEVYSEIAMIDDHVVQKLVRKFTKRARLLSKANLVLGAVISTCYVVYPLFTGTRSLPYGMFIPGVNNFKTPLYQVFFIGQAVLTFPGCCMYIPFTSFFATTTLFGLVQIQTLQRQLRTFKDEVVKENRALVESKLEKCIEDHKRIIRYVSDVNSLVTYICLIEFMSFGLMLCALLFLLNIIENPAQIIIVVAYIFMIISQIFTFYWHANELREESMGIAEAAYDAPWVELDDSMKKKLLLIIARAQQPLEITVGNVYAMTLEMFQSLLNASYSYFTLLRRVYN
T3 sequence (Q309I4 entry or part of it): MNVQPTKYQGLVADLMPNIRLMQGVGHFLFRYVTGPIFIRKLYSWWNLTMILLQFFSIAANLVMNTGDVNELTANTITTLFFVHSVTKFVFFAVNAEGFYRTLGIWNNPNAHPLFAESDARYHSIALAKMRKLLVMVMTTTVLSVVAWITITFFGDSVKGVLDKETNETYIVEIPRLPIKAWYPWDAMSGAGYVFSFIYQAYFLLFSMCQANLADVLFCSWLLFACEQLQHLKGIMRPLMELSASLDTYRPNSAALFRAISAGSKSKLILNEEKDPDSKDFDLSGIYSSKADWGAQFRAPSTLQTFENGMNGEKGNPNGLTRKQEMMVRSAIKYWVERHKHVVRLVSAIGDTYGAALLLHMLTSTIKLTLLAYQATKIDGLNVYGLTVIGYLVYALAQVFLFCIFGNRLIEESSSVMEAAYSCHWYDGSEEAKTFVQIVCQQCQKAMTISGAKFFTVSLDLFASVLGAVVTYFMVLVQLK
Protocol: as §1, §2, §3

Cqui\Orco = experiment: Agonist activation of homomeric Cqui\Orco in Xenopus oocytes, two-electrode voltage clamp; type: cell-based, Culex quinquefasciatus; conditions: 100 µM compound; mean ± SEM, n=3-8
Dmel\Orco + Dmel\Or35a [3] = biological target: T1, Dmel\Orco + Dmel\Or35a; experiment: Inhibition of OLC12 activation of Dmel\Orco + Dmel\Or35a in Xenopus oocytes; type: cell-based
Protocol: as §1, §2
In inhibition assays, oocytes were exposed to 60 sec applications of OLC12 with 9 min washes between applications (Fig. 3 and 4) or 60 sec applications of odorant with 20 min washes between applications (Fig. 5). Oocytes were then exposed to a 90 sec application of antagonist candidate, immediately followed by a 60 sec co-application of antagonist candidate and OLC12 or odorant. Oocytes were then exposed to a final 60 sec application of OLC12 or odorant. The current response in the presence of antagonist candidate was compared to the preceding response(s) to OLC12 (or odorant) alone.
as §3

Cqui\Orco + Cqui\Or10 [4] = biological target: T3, Cqui\Orco + Cqui\Or10; experiment: Inhibition of odorant (3-methylindole) activation of Cqui\Orco + Cqui\Or10 in Xenopus oocytes; type: cell-based; conditions: for Inhibition of activation of Cqui\Orco+Cqui\Or10 by 3-methylindole: 100 nM 3-methylindole, OLC compound 100 µM
Onub\Orco + Onub\Or1 = experiment: Inhibition of odorant (E12-14:OAc) activation of Onub\Orco + Onub\Or1 in Xenopus oocytes; type: cell-based, Ostrinia nubilalis; conditions: OLC compound 100 µM
Protocol: as §1
Odorant and Orco ligand induced currents were recorded under two-electrode voltage clamp in Xenopus laevis oocytes expressing ORs, using an automated parallel electrophysiology system (OpusExpress 6000A; Molecular Devices). Oocytes were perfused with ND96 (in mM: 96 NaCl, 2 KCl, 1 CaCl2, 1 MgCl2, 5 HEPES, pH 7.5). Odorant stock solutions (0.5 or 1 M) and Orco ligand stock solutions (100 mM) were prepared in DMSO and diluted in ND96. […]
Initial analysis of electrophysiological data was done using Clampfit 9.1 software (Molecular Devices). […] Statistical significance was assessed using a two-tailed unpaired t test, an F test, or a one-way analysis of variance followed by the Bonferroni’s post-test, as appropriate.

[5] = activated by 10 µM OLC12 (EC25), read-out: IC50, Dmel\Orco + Dmel\Or35a (activated by 10 µM OLC12)

Q: For `CCc1ccc(NC(=O)CSc2nnc(-c3ccccn3)n2CC)cc1` [OLC2], which Emax at 100 µM (Dmel\Orco + Dmel\Or35a [1]) is on record?
A: 2 ± 1%

Q: And the Emax at 100 µM (Dmel\Orco)?
A: 0%

Q: And the Emax at 100 µM (Cqui\Orco + Cqui\Or10 [2])?
A: 0%

Q: What about the “Response amplitude as percentage of response to 100 µM OLC3, Cqui\Orco” value (Cqui\Orco) of the same compound?
A: 0%

Q: What about the IC50 (Dmel\Orco + Dmel\Or35a [3]; [5]) of the same compound?
A: 24 ± 5 µM

Q: And the “Inhibition of activation of Cqui\Orco+Cqui\Or10 by 3-methylindole” value (Cqui\Orco + Cqui\Or10 [4])?
A: inhibited

Q: What about the “Inhibition of activation of Onub\Orco+Onub\Or1 by E12-14:OAc” value (Onub\Orco + Onub\Or1) of the same compound?
A: inhibited

Q: What does the source list for `CCCCc1ccc(NC(=O)CSc2nnc(-c3ccccn3)n2CC)cc1` [OLC15]?
A: Emax at 100 µM (Dmel\Orco + Dmel\Or35a [1]): 0%; Emax at 100 µM (Dmel\Orco): 0%; Emax at 100 µM (Cqui\Orco + Cqui\Or10 [2]): 0%; Response amplitude as percentage of response to 100 µM OLC3, Cqui\Orco (Cqui\Orco): 0%; IC50 (Dmel\Orco + Dmel\Or35a [3]; [5]): 15 ± 1 µM; IC50 (Dmel\Orco + Dmel\Or35a [3]; activated by 100 µM OLC12, read-out: IC50, Dmel\Orco + Dmel\Or35a activated by 100 µM OLC12): 67 ± 7 µM; Inhibition of activation of Cqui\Orco+Cqui\Or10 by 3-methylindole (Cqui\Orco + Cqui\Or10 [4]): inhibited; IC50 (Cqui\Orco + Cqui\Or10 [4]; activated by 10 nM 3-methylindole (EC10), read-out: IC50 for inhibition of responses to 10 nM 3-MI): 1.5 ± 0.2 µM; IC50 (Cqui\Orco + Cqui\Or10 [4]; activated by 100 nM 3-methylindole (EC53), read-out: IC50 for inhibition of responses to 100 nM 3-MI): 2 ± 0.3 µM; Inhibition of activation of Onub\Orco+Onub\Or1 by E12-14:OAc (Onub\Orco + Onub\Or1): inhibited
